Data as given in US20150182472A1, “DENATURED LACTOGLOBULIN AND POLYPHENOL COASSEMBLIES” (TECHNION RESEARCH AND DEVELOPMENT FOUNDTION LTD., priority 2010, published 2015).

Experiments:
[1] = Particle size distribution by dynamic light scattering (DLS); assay type: physicochemical
Protocol: Dynamic light scattering was used to evaluate size distribution of the nanocomplexes formed, and that of the pure protein. To produce particles containing the EGCG:β-Lg molar ratios 2:1, 4:1, 6:1, 8:1 and 10:1, two experiments were performed: • (1) β-Lg solution (0.54 mM, in 0.9 ml of 30 mM PBS, pH 7) was heated to 75° C. for 20 minutes, and then EGCG solutions (1.96 mM-10.25 mM, in 0.48 ml of 5 mM PBS, pH 2.5) were added. […] The final EGCG concentrations were 0.87 mM-4.36 mM (0.04%-0.2%), the final β-Lg concentration was 0.43 mM (0.8%) and the pH of the final solution was 6.88.
After polyphenol addition, samples were vortexed for 20 seconds and allowed to cool to room temperature before measurement.
Particle size distribution was studied by a dynamic light scattering (DLS) analyzer (NICOMP™ 380, Particle Sizing Systems Inc., Santa Barbara, Calif., USA) equipped with an Avalanche Photo Diode (APD) detector, used at a fixed angle of 90°. The 90 mW laser wavelength was 658 nm. Mono- bi- or tri-modal distributions were calculated from the scattered light intensity fluctuations, by cumulants Nicomp™ analysis of the auto correlation function (see supplementary information in (Shapira, Assaraf, & Livney, 2009) for a more complete method description). The size range for the Nicomp distribution analysis was set to 1-1,000 nm. Measurements were made in duplicates at 25° C. Table 3 and FIG. 7 show an increase in particle size with increasing EGCG concentration indicating the formation of preheated complexes/nanoparticles (75° C., 20 min before EGCG addition). The molar ratios of β-Lg to EGCG presented in FIG. 7 are: 1:0 (straight line), 1:2 (dotted line), 1:4 (broken line), 1:6 (bold line/dot/line; ? ), 1:8 (fine line/dot/line; ? ) and 1:10 (line/2 dots; ? ).
As detailed above, EGCG-β-Lg nanoparticles at neutral pH are smaller than 50 nm. In order to determine whether the addition of EGCG to the preheated β-Lg causes, in addition to a slight increase in size, a change in colloidal stability, different EGCG concentration solutions were added to the pre-heated β-Lg to create nano-complexes comprised of β-Lg:EGCG at molar ratios in the range of 1:0 to 1:8, while the β-Lg concentration remains constant at a neutral pH (6.8).
The size distribution of the nano-particles solution seemed to consist of two fractions. The first fraction included the small nano-particles in the range of 2-3 nm in diameter and the second fraction included nano-particles of about 15 nm. Since the size of the protein molecule is around 2 nm, it would be reasonable to assume that the smaller-size fraction represents unbound protein molecules or protein molecules with a few bound EGCG molecules, while the larger-size fraction represents complexes comprising several protein molecules, and probably also several EGCG molecules. […] It was important to see whether the increase in the fraction of the larger sized complexes causes a decrease in colloidal stability. Therefore the predicted stability of the same complexes was studied by measuring the electrophoretic mobility (EM) of the nanocomplexes (FIG. 9B). For uniform and moderate electric fields, a linear relationship usually exists between the steady-state electrophoretic mobility and the zeta potential value (Delgado, et al. (2007) Journal of Colloid and Interface Science, Vol. 309, pages 194-224). The zeta potential is calculated according to the measured electrophoretic mobility using several theoretical models available. The choice of a suitable model is carried out according to the ratio of the particle radius (a) and the Debye length (κ−1) (i.e. a/κ−1=κ*a) which characterize the studied composition. […] In the composition of the invention for the smaller particles (of ˜2-3 nm) the κ*a was approximately 1.5. For the larger complexes of about 15 nm, the κ*a value was approximately 7.5. […]

[2] = Protection against EGCG oxidation: absorbance at 425 nm over time; assay type: physicochemical
Protocol: Aliquots of 2.5 ml EGCG solution were transferred to 1 cm path length spectrophotometer cuvettes and covered with parafilm to prevent evaporation. […] Solutions of 0.52 mM (0.95%) protein at a 2:1 molar ratio (EGCG:protein) and pH 6.85 were compared to pure EGCG solutions. The protein was preheated at 2 temperatures (75° C. and 85° C.) for 20 minutes or kept at room temperature, to compare the protection provided by the partially denatured protein to that of the native protein. The reason for testing these two temperatures was that according to the literature, at about this pH, between 65-75° C. small proteins oligomers are formed, while between 75-85° C. some aggregation of the oligomers occurs. […] Appropriate controls of β-Lg without EGCG and EGCG without β-Lg at the respective concentrations and pH were performed. After preparation, the samples were placed in 1 cm path length spectrophotometer cuvettes and covered with parafilm. […]

[3] = biological target: T1, preheated β-Lg (75° C., 20 min) (Bos taurus, UniProt P02754); test: Intrinsic protein fluorescence quenching: binding of EGCG to preheated β-Lg (Langmuir-based model and modified Stern-Volmer); parameters: species or system bovine; conditions: for KSVa ± S.E. (Stern-Volmer quenching constant) / fa ± S.E. (fraction of fluorophore-sites accessible): preheated 20 min 75° C.; for Ka ± S.E.: protein preheated 20 min 75° C. before adding EGCG
T1 construct: Beta-lactoglobulin (β-Lg, 18.4 kDa, 162 amino acids) is the major whey protein in cow milk; purchased
T1 sequence (P02754 17-178): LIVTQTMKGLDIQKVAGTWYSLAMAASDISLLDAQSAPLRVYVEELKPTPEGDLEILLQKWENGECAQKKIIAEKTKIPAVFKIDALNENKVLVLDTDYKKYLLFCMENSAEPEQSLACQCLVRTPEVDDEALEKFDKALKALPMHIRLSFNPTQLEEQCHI
Protocol: (§1) It is based on exciting at 280 nm the Trp and Tyr residues of bovine β-Lg (bovine β-Lg contains two Trp residues and four Tyr residues) and at 295 nm where only Trp residues are excited though the quantum yield of the Trp itself is smaller than that at 280 nm.
(§2) All fluorescence measurements were performed at room temperature. β-Lg solution (2.09 μM in 1.9 ml of 30 mM PBS, pH 6.86) was heated at 75° C. for 20 minutes, or kept at room temperature. The co-assembly preparation process was done as described above. All measurements were performed after equilibrating the solutions at room temperature for 3 hours. EGCG solutions were 0-400 μM in 0.1 ml of 30 mM PBS, pH 2.44. All samples were prepared in triplicates. The pH of the final solutions was 6.86. β-Lg fluorescence was measured at constant protein concentration of 2 μM and EGCG concentrations of 0-20 μM using a Fluorolog 3-22 spectrofluorometer (Horiba, Jobin Yvon, Longjumeau, France) at a Right-Angle mode. Emission spectra were recorded from 290 to 510 nm with an excitation wavelength of 280 nm, and from 305 to 520 nm with an excitation wavelength of 295 nm, employing 5 nm slit widths. The statistical analysis and non-linear curve fitting were performed using Origin 8 (OriginLab, Northampton, USA).
(§3) Trp61 is reportedly quenched in the native state due to proximity to the Cys66-Cys160 disulfide bond, while Trp 19 is located in a non-polar environment within the cavity of the β-barrel structure, and is responsible for most of the Trp (and the protein) fluorescence. A small shift in the maximal emission wavelength of the protein occurred upon heating and was more clearly observed at the excitation wavelength attributed to Trp alone (295 nm). As only small shifts in the maximal wavelength occurred, all analyses were performed at emission of 343 nm for both excitation wavelengths. When studying the binding of EGCG to β-LG by fluorescence, it is important to keep in mind that EGCG, and not only β-LG, absorbs energy, both at the protein's excitation and, to a lower extent, at the emission wavelengths. Consequently, an inner filtering effect occurs, which intensifies with increasing EGCG concentration, reducing the amount of available energy to excite the protein' s fluorescent groups and absorbing some of the emitted energy too. To overcome this effect, the emission at 343 nm was corrected according to Beer-Lambert's law, using equation 1:
(§4) F=Fu·10^QL(ε^λex^+ε^λem^) (Equation 1)
(§5) where Fu is the measured, uncorrected emission intensity, ελex and ελem—the molar extinction coefficients of EGCG at the excitation and emission wavelengths respectively (measured spectrophotometrically, in the same buffer), Q is the quencher (EGCG) concentration in the cell and L is the path length assumed to be 0.5 cm each for the excitation and emission.
(§6) The analysis for determination of the binding constants was performed using a Langmuir-based model, assuming one affinity-class of binding sites, as described by equation (2): […]
(§7) where F and F0 are the fluorescence intensities of the protein solution in the presence and in the absence of the ligand, respectively; F∞ is the fluorescence when the protein is saturated with the ligand and L0 is the total ligand concentration. The decrease in the fluorescence in the presence of different EGCG concentrations was recorded, and the association constant (Ka) as well as the value for maximum fluorescence difference (ΔFmax=F0−F∞) were calculated by non-linear curve fitting to equation 2 (FIG. 5). The parameters for the fitting were based on the quenching of Tyr and Trp fluorescence at pH 6.87, for β-Lg concentration of 2 μM.
(§8) Fluorescence quenching is often described by the Stern-Volmer equation (3): […]
(§9) where F0 and F are the fluorescence intensities before and after the addition of the quencher, respectively, KSV is the Stern-Volmer quenching constant and [Q] is the concentration of the quencher. […]

[4] = sodium phosphate buffer (pH 7.4); 3 hr; cited from earlier work
[5] = biological target: T2, native β-Lg (Bos taurus, UniProt P02754); test: Intrinsic protein fluorescence quenching: binding of EGCG to native β-Lg (Langmuir-based model and modified Stern-Volmer); parameters: species or system bovine; conditions: without preheating (RT)
T2 construct: Beta-lactoglobulin (β-Lg, 18.4 kDa, 162 amino acids) is the major whey protein in cow milk; purchased
T2 sequence (P02754 17-178): T1 sequence (P02754 17-178)
Protocol: as §1, §2, §3, §4, §5, §6, §7, §8, §9

[6] = Loading efficiency and loading ratio of EGCG by centrifugal ultrafiltration; assay type: physicochemical; conditions: both β-Lg concentrations (0.5% and 1% w/w)
Protocol: The loading efficiency (the percentage of encapsulated substance out of total material added to the composition) and loading ratio (the ratio between the encapsulated substance and the encapsulation matrix) of EGCG was determined. β-Lg-EGCG nanoparticles solutions, of 2:1 and 8:1 EGCG: β-Lg molar ratios, were prepared at 1% w/w and 0.5% w/w protein solution. The entrapped EGCG in β-Lg nanoparticles was separated from the free EGCG by centrifugal ultrafiltration as described above. The molar loading ratio and the loading efficiency are presented on Table 4.

[7] = β-Lg 0.35 mM (0.65% (w/w) pH 6.56)
[8] = β-Lg 0.43 mM (0.8% (w/w) pH 6.56)

1:0: preheated β-lactoglobulin without EGCG (major whey protein in cow milk, 18.4 kDa)
size ([1]; rough summary of Table 3): around 2 nm | d, Peak I (β-Lg) [1, 7]: 4.8 nm | fvw, Peak I (β-Lg) [1, 7]: 99.6% | d, Peak I (β-Lg) [1, 8]: 1.4 nm | d, Peak II (β-Lg-EGCG) [1, 8]: 20.2 nm | fvw, Peak I (β-Lg) [1, 8]: 99.8% | fvw, Peak II (β-Lg-EGCG) [1, 8]: 0.2%

O=C(O[C@@H]1Cc2c(O)cc(O)cc2O[C@@H]1c1cc(O)c(O)c(O)c1)c1cc(O)c(O)c(O)c1 [EGCG, (−)-Epigallocatechin-3-gallate]
increase in the 425 nm absorbance with time ([2]; EGCG solution (0.05%) in pH 2.5 PBS): no increase | degradation rate (absorbance at 425 nm) ([2]; PBS pH 6.8, EGCG 0.05%-0.5%): degradation rate increased with rising EGCG concentration | EGCG degradation rate (increase in absorbance at 425 nm) ([2]; eight days at room temperature, EGCG 1.09 mM (0.05%), β-Lg 0.52 mM, pH 6.85): fastest increase in the absorbance | KSVa ± S.E. (Stern-Volmer quenching constant) ([3]; excitation 280 nm): 3.31 ± 0.7 10^5 M^−1 | fa ± S.E. (fraction of fluorophore-sites accessible) ([3]; excitation 280 nm): 0.32 ± 0.05 | Ka ± S.E. ([3]; excitation 280 nm): 3.7 ± 0.67 10^5 M^−1 | KSVa ± S.E. (Stern-Volmer quenching constant) ([3]; excitation 295 nm): 3.07 ± 1.05 10^5 M^−1 | fa ± S.E. (fraction of fluorophore-sites accessible) ([3]; excitation 295 nm): 0.25 ± 0.07 | Ka ± S.E. ([3]; excitation 295 nm): 3.3 ± 1.07 10^5 M^−1 | Ka (association constant, Langmuir-based model fit) ([3]; pH 6.87, β-Lg 2 μM, FIG. 5 fit): 370000 ± 67000 M⁻¹ | ΔFmax*10^6 (maximum fluorescence difference) ([3]; pH 6.87, β-Lg 2 μM, FIG. 5 fit): 3.31±0.17 | EGCG lost [4]: 80% | KSVa ± S.E. (Stern-Volmer quenching constant) ([5]; excitation 280 nm): 1.4 ± 0.7 10^5 M^−1 | Ka ± S.E. ([5]; excitation 280 nm): 1.05 ± 0.34 10^5 M^−1 | fa ± S.E. (fraction of fluorophore-sites accessible) ([5]; excitation 280 nm): 0.16 ± 0.07 | KSVa ± S.E. (Stern-Volmer quenching constant) ([5]; excitation 295 nm): 1.4 ± 0.7 10^5 M^−1 | Ka ± S.E. ([5]; excitation 295 nm): 1.9 ± 0.6 10^5 M^−1 | fa ± S.E. (fraction of fluorophore-sites accessible) ([5]; excitation 295 nm): 0.15 ± 0.06

Cn1c(=O)c2c(ncn2C)n(C)c1=O [caffeine]
binding or entrapment in β-Lg [6]: did not show any binding or entrapment
